{
  "source": "paper PMC5669199",
  "about": "“CM352 Reduces Brain Damage and Improves Functional Recovery in a Rat Model of Intracerebral Hemorrhage” (Journal of the American Heart Association: Cardiovascular …, 2017)",
  "key": {"[1]": {"test": "Plasma protein binding", "assay_type": "in vitro ADME", "details": "rat, read-out: Plasma prot binding (% unbound)"}, "[2]": {"system": "tissue‐type plasminogen activator–induced fibrinolysis in mouse whole blood", "test": "Whole blood clot formation and lysis assay (ROTEM thromboelastometry), mouse blood", "assay_type": "biochemical", "details": "tPA‐induced fibrinolysis, read-out: effective concentration to delay lysis time by 50%", "protocol": "Citrated blood samples from (n=4) rats (Sprague Dawley) and (n=16) mice ([…], Harlan Iberica) were assayed with a ROTEM analyzer (Pentapharm GmbH, Munich, Germany) as previously described.20 In a prewarmed cuvette and holder we pipetted 1 μL tissue-type plasminogen activator (150 000 U/mL), 20 μL Start-tem reagent (Pentapharm GmbH), 20 μL In-tem reagent (Pentapharm GmbH), 3 μL DMSO (SIGMA) or test compounds in DMSO, and 300 μL prewarmed citrated blood. The cup holder containing the sample mixture was placed immediately on the appropriate channel. Measurements were recorded for 60 minutes to allow clot formation and lysis, and results are expressed as effective concentration to delay lysis time by 50%."}, "[3]": {"system": "rat model of collagenase‐induced ICH", "test": "Cylinder test (laterality index) in ICH rat model", "assay_type": "in vivo", "details": "24 hours and 14 days, all P<0.01 vs control", "protocol": "Following STAIR criteria, animal models must show neurological and functional deficits in line with the produced lesion. The model of collagenase‐induced hemorrhage primarily damages the striatum, producing a small forelimb paresis contralateral to the lesion. Sensorimotor deficits after ischemic insult were assessed using the cylinder test, as previously described.23 This test evaluates limb asymmetry during the exploratory activity. Each animal was put in a cylinder with a 20‐cm‐diameter transparent base. A video camera was located under this transparent cylinder for recording the vertical exploratory movements of the animal with its anterior limbs for 2 to 10 minutes, depending on movement grade. For image recording and analysis, VirtulDub software was used. Analyzed behaviors were the numbers of times that the animal touched the cylinder wall and independent use of each limb in contact with the cylinder wall in each upward movement. The laterality index was calculated (the number of times that the animal touched the cylinder with the right leg during the ascendant movement by the number of times that the animals touched with each leg). […] An experienced investigator, blind to treatment and neuroimaging data, analyzed the behavioral tests."}, "[4]": {"target": "bacterial collagenase type VII", "test": "Collagenase activity assay (FALGPA substrate)", "assay_type": "biochemical", "details": "tested 10 nmol/L to 10 μmol/L; no significant effect", "protocol": "Enzymatic assay of collagenase was performed using FALGPA (Sigma‐Aldrich Corp, St. Louis, MO) as substrate, according to the manufacturer's recommendations. Briefly, proteolysis of 1 mmol/L FALGPA by 2 U/mL bacterial collagenase type VII (Sigma‐Aldrich Corp, St. Louis, MO) in reaction buffer (50 mmol/L Tricine; 10 mmol/L CaCl2; 400 mmol/L NaCl) was monitored spectrophotometrically (345 nm) for 5 minutes, in the presence of CM352, phenanthroline, or vehicle."}},
  "data": [
    {"smiles": "CNC(=O)c1ccc(Oc2ccc(S(=O)(=O)[C@]3(C(=O)NO)CCC4(CCNCC4)C3)cc2)cc1", "note": "[CM352, 4‐[4‐[[(3R)‐3‐(Hydroxycarbamoyl)‐8‐azaspiro[4.5]decan‐3‐yl]sulfonyl]phenoxy]‐N‐methylbenzamide]", "values": [
      {"measurement": "fraction unbound", "setting": "[1]", "result": 0.4},
      {"measurement": "EC50", "setting": "[2]", "result": 200, "unit": "nM"},
      {"measurement": "sensorimotor recovery (laterality index)", "setting": "[3]; 1 mg/kg 3 hours after collagenase", "result": "better sensorimotor recovery"},
      {"measurement": "sensorimotor recovery (laterality index)", "setting": "[3]; 1 mg/kg iv 1 hour after collagenase", "result": "better sensorimotor recovery"},
      {"measurement": "IC50", "setting": "[4]", "result": "> 10000", "unit": "nM"}
    ]}
  ]
}
